Experimental data from patent publication US8962637B2, “Bicyclic compounds and their uses as dual c-SRC/JAK inhibitors” (Debiopharm S.A., priority 2010, dated 2015).

Tests used:
[1] = system: A549 cells; experiment: Cell viability assay (XTT assay), A549; type: cell-based; conditions: Homo sapiens, 72 hrs
Experimental: Next day compounds were added to cells and incubated for 72 hrs. Compound treatment was done in triplicates. After 72 hrs cell culture media was aspirated from the wells and XTT working solution was added and plates were incubated for 2-5 hrs. […] EC50 values were calculated using Graphpad Prism. Tumor cell lines used in the examples of the present invention were procured from ATCC. Description of the cell lines is included in the following table: […]

[2] = system: A431 tumor cells; experiment: A431 xenograft model; type: in vivo, athymic nude mice; conditions: for TGI: Efficacy - A431 at 100 MPK
Experimental: SC injection of 5×10^6 A431 tumor cells with Matrigel® on the left flank of 24 female athymic nude mice. Randomization of mice 14 days after tumor cell injection into 3 groups of 8 mice each with a mean tumor volume of 90±1 mm3.
(§1) Formulation: 20% HPC, 2% ethanol solution in PBS for the compound No. 45
• Normal saline for Gefitinib® Dosing route: Oral for the compound No. 45 and Gefitinib® Dose Volume: 10 mL/Kg body weight Dosing schedule: Once daily for 14 consecutive days (Q1Dx14) PK-PD experiment in A431 model: Tumors were allowed to grow to 250 mm^3 size. Compounds were dosed once and PBMCs and tumors were collected at Tmax for pStat3 estimation. Plasma was also collected to estimate drug concentration estimation. Efficacy experiment in A431 model: Dosage: • Group1. Vehicle control • Group2. Compound No. 45—150 MPK • Group3. […] Plasma collected for drug concentration estimation and whole blood was collected to isolate PBMCs to determine pStat3 inhibition by flow cytometry as PD readout. Tumors were snap frozen in liquid nitrogen and stored at −80° C. to estimate pStat3 by flow cytometry as PD readout Determination of Plasma Drug Concentration: […]

[3] = system: pStat3; experiment: Quantification of pStat3 in tumors by flow cytometry; type: in vivo, mice
Experimental: Measured pStat3 using FACS caliber machine (BD). Unstained PBMCs was used for cytometry settings. […] Histograms (cell number V/s FL1-H) were plotted. Percentage of cells that are phosphorylated by IL6 stimulation (M2 population), and inhibition of phosphorylation by inhibitor (decrease in M2 population) are calculated on histogram by marking peaks, M1 and M2.
Separate the tumour & 200 mg of tumour was crashed (45 mg per ml) by using IKA 10 at Speed #4 for 10 seconds. Sieve the tumour extract through 100 u, centrifuge at 900 g for 10 min. Re-suspend cells briefly in 0.5-1 ml PBS. Add formaldehyde to a final concentration of 2-4% formaldehyde. Fix for 10 minutes at 37° C. Chill tubes on ice for 1 minute.
Permeabilize cells by adding ice-cold 100% methanol slowly to pre-chilled cells, while gently vortexing, to a final concentration of 90% methanol. Alternatively, to remove fix prior to permeabilization, pellet cells by centrifugation and re-suspend in 90% methanol. Incubate 30 minutes on ice. Proceed with staining or store cells at −20° C. in 90% methanol. Aliquot 0.5-1×10^6 cells into each assay tube (by volume). Add 2-3 ml Incubation Buffer to each tube and rinse by centrifugation. Repeat. Re-suspend cells in 100 μl Incubation Buffer per assay tube. Analyze by flow cytometry like PBMCs.

[4] = MTD / tolerance in athymic mice; conditions: once-daily 14 days treatment in athymic mice
[5] = Volume distribution; conditions: in vivo
Text: Table 8 provides some volume distribution values of the compounds of the present invention.

[6] = system: B16F10 tumor cells; experiment: B16F10 metastasis model; type: in vivo, C57B16 mice; conditions: for Metastasis Inhibition: B16F10 model; for % metastasis inhib.: Efficacy - B16F10 at 100 MPK
Experimental: IV injection of 0.1×10^6 B16F10 tumor cells in the tail vain of 60 male C57B16 mice. Randomization of mice one day after tumor cell injection into 4 groups of 15 mice. Out of 15, 6 mice were sacrificed on 14th day for counting metastatic foci on lungs. Rest 9 mice were dosed continuously till morbidity/mortality for recording survival.
as §1
Plasma collected for drug concentration estimation and whole blood was collected to isolate PBMCs to determine pStat3 inhibition by flow cytometry as PD readout.

[7] = system: Mda-Mb-231 cells; experiment: Cell viability assay (XTT assay), Mda-Mb-231; type: cell-based; conditions: Homo sapiens, 72 hrs
Summary of the method: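 MDA-MB-231 cells seeded and dosed next day in triplicate, incubated 72 h. Medium replaced with XTT working solution for 2-5 h, absorbance read at 465 nm, and EC50 values derived from the readings.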

[8] = system: A431 cancer cell line; experiment: Inhibition of cell growth in A431; type: cell-based; conditions: Homo sapiens, A-431
[9] = biological target: JAK1 (Homo sapiens (Human), UniProt P23458); experiment: JAK1 kinase inhibition; type: biochemical
JAK1, sequence (P23458 whole entry): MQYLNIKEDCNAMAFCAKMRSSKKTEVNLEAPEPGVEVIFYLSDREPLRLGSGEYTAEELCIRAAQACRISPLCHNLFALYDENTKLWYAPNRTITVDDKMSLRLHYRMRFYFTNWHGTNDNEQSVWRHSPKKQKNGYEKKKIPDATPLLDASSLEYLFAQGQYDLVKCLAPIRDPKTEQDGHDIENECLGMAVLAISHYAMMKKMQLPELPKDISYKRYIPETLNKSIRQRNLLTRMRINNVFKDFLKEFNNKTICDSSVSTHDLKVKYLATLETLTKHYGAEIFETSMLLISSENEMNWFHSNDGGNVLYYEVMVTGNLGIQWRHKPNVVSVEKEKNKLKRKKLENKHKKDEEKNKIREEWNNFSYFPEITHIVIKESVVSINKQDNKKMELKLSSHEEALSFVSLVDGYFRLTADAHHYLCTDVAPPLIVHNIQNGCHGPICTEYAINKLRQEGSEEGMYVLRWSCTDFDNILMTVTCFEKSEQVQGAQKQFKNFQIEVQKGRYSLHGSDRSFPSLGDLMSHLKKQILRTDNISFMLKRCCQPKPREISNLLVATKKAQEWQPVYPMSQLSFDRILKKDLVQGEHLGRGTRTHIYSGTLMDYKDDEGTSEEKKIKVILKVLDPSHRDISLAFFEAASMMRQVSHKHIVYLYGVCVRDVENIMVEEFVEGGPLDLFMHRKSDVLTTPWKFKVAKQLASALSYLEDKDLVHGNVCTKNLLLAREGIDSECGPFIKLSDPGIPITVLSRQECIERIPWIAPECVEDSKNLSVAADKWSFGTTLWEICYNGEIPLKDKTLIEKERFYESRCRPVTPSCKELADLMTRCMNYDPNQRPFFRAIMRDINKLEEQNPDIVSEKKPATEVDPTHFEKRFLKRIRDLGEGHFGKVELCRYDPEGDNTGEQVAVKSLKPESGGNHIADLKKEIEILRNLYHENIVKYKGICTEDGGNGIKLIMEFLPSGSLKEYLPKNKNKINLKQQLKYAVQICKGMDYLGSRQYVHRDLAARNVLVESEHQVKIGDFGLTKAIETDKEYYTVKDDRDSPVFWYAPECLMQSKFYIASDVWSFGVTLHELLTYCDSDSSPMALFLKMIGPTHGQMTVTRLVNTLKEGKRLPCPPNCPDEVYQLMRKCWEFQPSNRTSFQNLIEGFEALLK

With `Cc1ccc(NC(=O)c2cccc(C(F)(F)F)c2)cc1N1CCc2nc(Nc3ccc(N4CCN(C)CC4)cc3)ncc2C1=O` [Compound 45, N-(4-Methyl-3-{2-[4-(4-methyl-piperazin-1-yl)-phenylamino]-5-oxo-7,8-dihydro-5H-pyrido[4,3-d]pyrimidin-6-yl}-phenyl)-3-trifluoromethyl-benzamide] the EC50 [1] was 1070 nM, the “% TGI” value ([2]; A431 Xenograft model, 100 MPK) was 52.55% and the TGI [2] was 48%. For the same molecule, the “Tumors % pStat3 inhibition” value ([3]; A431 Xenograft model, 100 MPK) was 44.3%, the “Tumors % pStat3 inhibition” value ([3]; A549 Xenograft model, 10 MPK) was 44.46% and the “Tumors % pStat3 inhibition” value ([3]; A549 Xenograft model, 30 MPK) was 48.92%. The “Tumors % pStat3 inhibition” value ([3]; A549 Xenograft model, 100 MPK) was 61.51%, the “Tumors % pStat3 inhibition” value ([3]; A549 Xenograft model, 150 MPK) was 57.08% and the “% pSTAT3 inhib. (tumour)” value ([3]; Efficacy - A431 at 100 MPK) was 45%. The “% pSTAT3 inhib. (tumour)” value ([3]; Efficacy - A549, at 100 MPK) was 62% at, the “toxicity effects on major organs” value [4] was “does not cause pronounced toxicity effects on major organs” and the Vd [5] was 5.89 L/kg. The anti-tumor activity ([6]; B16F10 metastasis model) was “good anti-tumor activity”, the “reduction in metastatic counts on lungs” value ([6]; B16F10 metastasis model, 100 MPK, Q1Dx14) was 75% and the “Metastasis Inhibition” value ([6]; 30 MPK) was 73%. For the same molecule, the “Metastasis Inhibition” value ([6]; 100 MPK) was 75%, the “% metastasis inhib.” value [6] was 75% and the EC50 [7] was 1830 nM. It also gave an EC50 [8] of 1400 nM, an IC50 [9] of 116 nM and an inhibition at 0.1 µM ([9]; read-out: JAK1 % inhibition at 100 nM) of 56%. The inhibition at 1 µM ([9]; read-out: JAK1 % inhibition at 1 μM) was 82%.
In the case of `Cc1ccc(NC(=O)c2cccc(C(F)(F)F)c2)cc1N1CCc2nc(Nc3ccc(C(=O)NC4CC4)nc3)ncc2C1` [Compound 117, 5-{6-[2-Methyl-5-(3-trifluoromethyl-benzoylamino)-phenyl]-5,6,7,8-tetrahydro-pyrido[4,3-d]pyrimidin-2-ylamino}-pyridine-2-carboxylic acid cyclopropylamide], the EC50 [1] is reported as 25 nM, the TGI [2] is reported as 54% and the “% pSTAT3 inhib. (tumour)” value ([3]; Efficacy - A431 at 100 MPK) is reported as 10%. For the same molecule, the “% pSTAT3 inhib. (tumour)” value ([3]; Efficacy - A549, at 100 MPK) was 47% at, the “% metastasis inhib.” value [6] was 26% and the EC50 [7] was 660 nM. The EC50 [8] was 330 nM and the IC50 [9] was 24 nM.
For `CNC(=O)c1ccc(Nc2ncc3c(n2)CCN(c2cc(NC(=O)c4cc(C(F)(F)F)ccn4)ccc2Cl)C3)cc1` [Compound 179, 4-Trifluoromethyl-pyridine-2-carboxylic acid {4-chloro-3-[2-(4-methylcarbamoyl-phenylamino)-7,8-dihydro-5H-pyrido[4,3-d]pyrimidin-6-yl]-phenyl}-amide], the TGI [2] was 67%, the “% pSTAT3 inhib. (tumour)” value ([3]; Efficacy - A431 at 100 MPK) was 54% and the “% pSTAT3 inhib. (tumour)” value ([3]; Efficacy - A549, at 30 MPK) was 79% at. The “% metastasis inhib.” value [6] was 47%, the EC50 [7] was 900 nM and the IC50 [9] was 12 nM.
